Read-outs that look alike come from different tables or passages of the source.
Target: PARP1 (poly ADP-ribose polymerase 1) (Homo sapiens, UniProt P09874)
Assay: PARP1 enzymatic ELISA (histone-coated plates, biotinylated NAD+, HRP luminescence)
Format: biochemical

Chain of PARP1 (poly ADP-ribose polymerase 1) (P09874 2-1014): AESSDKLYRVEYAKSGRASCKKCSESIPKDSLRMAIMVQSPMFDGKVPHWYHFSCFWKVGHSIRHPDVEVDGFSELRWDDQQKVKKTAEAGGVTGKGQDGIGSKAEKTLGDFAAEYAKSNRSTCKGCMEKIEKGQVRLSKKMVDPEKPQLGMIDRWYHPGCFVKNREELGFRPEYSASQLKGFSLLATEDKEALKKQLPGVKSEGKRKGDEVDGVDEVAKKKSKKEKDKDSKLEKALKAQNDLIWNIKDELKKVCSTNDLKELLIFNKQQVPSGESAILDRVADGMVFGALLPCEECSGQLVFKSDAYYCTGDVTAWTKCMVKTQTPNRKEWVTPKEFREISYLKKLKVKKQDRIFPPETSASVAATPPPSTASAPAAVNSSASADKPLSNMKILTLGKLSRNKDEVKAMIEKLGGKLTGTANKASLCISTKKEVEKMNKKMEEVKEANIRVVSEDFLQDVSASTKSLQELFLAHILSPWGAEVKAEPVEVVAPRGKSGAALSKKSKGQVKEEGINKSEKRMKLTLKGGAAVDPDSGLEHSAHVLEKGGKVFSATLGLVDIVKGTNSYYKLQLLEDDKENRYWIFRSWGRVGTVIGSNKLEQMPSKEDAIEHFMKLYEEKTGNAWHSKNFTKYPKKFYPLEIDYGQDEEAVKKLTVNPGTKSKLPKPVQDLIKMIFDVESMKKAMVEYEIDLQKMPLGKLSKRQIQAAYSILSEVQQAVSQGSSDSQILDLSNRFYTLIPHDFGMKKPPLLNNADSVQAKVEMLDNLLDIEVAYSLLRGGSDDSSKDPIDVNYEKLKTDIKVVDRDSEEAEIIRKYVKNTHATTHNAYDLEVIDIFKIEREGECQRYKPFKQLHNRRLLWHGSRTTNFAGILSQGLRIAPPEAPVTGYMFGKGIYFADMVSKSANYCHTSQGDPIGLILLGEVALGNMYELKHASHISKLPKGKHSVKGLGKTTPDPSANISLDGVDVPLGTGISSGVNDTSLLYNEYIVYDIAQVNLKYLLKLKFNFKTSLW

SMILES | IC50 [µM] | IC50 (read-out: IC50) [µM]
COc1ccc2cc3[n+](cc2c1OC)CCc1cc(O)c(O)cc1-3 [compound 2, demethyleneberberine] | 2 ± 0.8 | 
COc1c2ccoc2nc2c(O)cccc12 [compound 3, 8-hydroxy dictanmnine] | 44.9 ± 8.4 | 
COc1ccc2ccc(=O)oc2c1CC(O)C(C)(C)O (stereo not shown) [compound 4, meranzin hydrate] |  | 67.2 ± 7.6
COc1ccc2ccc(=O)oc2c1CC=C(C)C [compound 5, osthol] | 76.5 ± 12.4 | 
